Assay results published in US5627270A, “Glycosylated steroid derivatives for transport across biological membranes and process for making and using same” (Trustees of Princeton University, priority 1994, dated 1997).
Where two headings read alike, the source gives them in different places.

Columns and labels:
[1] = tested on: DH2 cells (a mutant strain of E. coli K-12); type: cell-based; conditions: for EFFECT (enhancement of erythromycin): compound 20 mM; for enhancing effect on erythromycin: test compound 20 mM; as to EFFECT (enhancement of erythromycin): key: --: erythromycin alone at 1.0 mM (baseline) and all lesser effects; +: enhancement relative to baseline; +++: significant enhancement relative to baseline
[2] = ASSAY II: proton transport across lipid membranes; type: biochemical
[3] = ASSAY I: leakage of carboxyfluorescein from vesicles; type: biochemical; conditions: for efficacy in permeabilizing phospholipid membranes: concentrations required for >50% leakage taken as measure
[4] = 0.000579 mM final concentration

Compound | % Decrease in Fluorescence ([2]; 0.0116 mM final concentration) [%] | % increase in Fluorescence ([3]; 0.117 mM final concentration) [%] | efficacy in permeabilizing phospholipid membranes [3] | % Decrease in Fluorescence ([2]; 0.00579 mM final concentration) [%] | other results
C[C@H](CCC(=O)O)[C@H]1CC[C@H]2[C@@H]3[C@H](O[C@H]4O[C@H](CO)[C@@H](O)[C@H](O)[C@H]4O)C[C@@H]4C[C@H](O)CC[C@]4(C)[C@H]3C[C@H](O[C@H]3O[C@H](CO)[C@@H](O)[C@H](O)[C@H]3O)[C@]12C [3α-OH-cis-5,10-bis-α,α-glucosyl cholic acid K^+] | – | – | – | – | EFFECT (enhancement of erythromycin) ([1]; erythromycin 0.5 mM): +; EFFECT (enhancement of erythromycin) ([1]; erythromycin 1.0 mM): +
C[C@H](CCC(=O)O)[C@H]1CC[C@H]2[C@@H]3[C@H](O)C[C@@H]4C[C@H](O)CC[C@]4(C)[C@H]3CC[C@]12C [Chenodeoxycholic Acid, reference compound] | 8.2 | 17.7 | also permeabilize membranes in this assay, although at much higher concentrations | – | enhancing effect on erythromycin [1]: did not have a detectable effect; % increase in Fluorescence ([3]; 1.17 mM final concentration): 80.9%
C[C@H](CCC(=O)O)[C@H]1CC[C@H]2[C@@H]3[C@H](O)C[C@@H]4C[C@H](O)CC[C@]4(C)[C@H]3C[C@H](O)[C@]12C [Cholic Acid, reference compound] | – | 0 | also permeabilize membranes in this assay, although at much higher concentrations | – | % Decrease in Fluorescence [2]: 1.0%; enhancing effect on erythromycin [1]: did not have a detectable effect; % increase in Fluorescence ([3]; 2.341 mM final concentration): 59.1%
C[C@H](CCC(=O)O)[C@H]1CC[C@H]2[C@@H]3CC[C@@H]4C[C@H](O)CC[C@]4(C)[C@H]3C[C@H](O)[C@]12C [Deoxycholic Acid, reference compound] | – | – | also permeabilize membranes in this assay, although at much higher concentrations | – | EFFECT (enhancement of erythromycin) ([1]; erythromycin 0.5 mM): +; EFFECT (enhancement of erythromycin) ([1]; erythromycin 1.0 mM): +; enhancing effect on erythromycin [1]: showed any effect
CCOC(=O)O[C@@H]1CC[C@@]2(C)[C@@H](C1)C[C@@H](O[C@H]1O[C@H](CO)[C@@H](O)[C@H](O)[C@H]1O)[C@@H]1[C@@H]2C[C@H](O[C@H]2O[C@H](CO)[C@@H](O)[C@H](O)[C@H]2O)[C@]2(C)[C@@H]([C@H](C)CCC(=O)OC)CC[C@@H]12 [Entry 1, 3α-ethylcarbonate-cis-5,10-bis-α,α-7,12-glucosyl cholic acid methyl ester] | 7.6 | 0 | – | 4.3 | –
C[C@H](CCC(=O)O)[C@H]1CC[C@H]2[C@@H]3[C@H](O[C@H]4O[C@H](CO)[C@@H](O)[C@H](O)[C@H]4O)C[C@@H]4C[C@H](O)CC[C@]4(C)[C@H]3C[C@H](O[C@H]3O[C@H](CO)[C@@H](O)[C@H](O)[C@H]3O)[C@]12C [Entry 3, 3α-hydroxy-cis-5,10-bis-α,α-7,12-glucosyl cholic acid] | 35.4 | – | – | 21.0 | % increase in Fluorescence ([3]; 2.34 mM final concentration): 0%
COC(=O)CC[C@@H](C)[C@H]1CC[C@H]2[C@@H]3[C@H](O[C@H]4O[C@H](CO)[C@@H](O)[C@H](O)[C@H]4O)C[C@@H]4C[C@H](O)CC[C@]4(C)[C@H]3C[C@H](O[C@H]3O[C@H](CO)[C@@H](O)[C@H](O)[C@H]3O)[C@]12C [Entry 4, 3α-hydroxy-cis-5,10-bis-α,α-7,12-glucosyl cholic acid methyl ester] | 12.3 | 0 | – | 7.89 | –
C[C@H](CCC(=O)NC(Cc1c[nH]c2ccccc12)C(=O)O)[C@H]1CC[C@H]2[C@@H]3[C@H](O[C@H]4O[C@H](CO)[C@@H](O)[C@H](O)[C@H]4O)C[C@@H]4C[C@H](O)CC[C@]4(C)[C@H]3C[C@H](O[C@H]3O[C@H](CO)[C@@H](O)[C@H](O)[C@H]3O)[C@]12C (stereo partly drawn) [Entry 5, 3α-hydroxy-cis-5,10-bis-α,α-7,12-glucosyl-25-tryptophanyl cholic acid] | 26.1 | 57.3 | – | 19.4 | –
COC(=O)CC[C@@H](C)[C@H]1CC[C@H]2[C@@H]3[C@H](O[C@H]4O[C@H](CO)[C@@H](O)[C@H](O)[C@H]4O)C[C@@H]4C[C@H](OC(=O)c5ccccc5)CC[C@]4(C)[C@H]3C[C@H](O[C@H]3O[C@H](CO)[C@@H](O)[C@H](O)[C@H]3O)[C@]12C [Entry 7, 3α-O-benzoyl-cis-5,10-bis-α,α-7,12-glucosyl cholic acid methyl ester] | 19.8 | 89.1 | the most effective glycosylated steroids tested | 15.2 | –
COC(=O)CC[C@@H](C)[C@H]1CC[C@H]2[C@@H]3[C@H](O[C@@H]4O[C@H](CO)[C@@H](O)[C@H](O)[C@H]4O)C[C@H]4C[C@H](OC(=O)c5ccccc5)CC[C@]4(C)[C@H]3C[C@H](O[C@@H]3O[C@H](CO)[C@@H](O)[C@H](O)[C@H]3O)[C@]12C [Entry 9, 3α-O-benzoyl-trans-5,10-bis-β,β-7,12-glucosyl cholic acid methyl ester] | 43.0 | 24.5 | – | 27.4 | –
C[C@H](CCC(=O)O)[C@H]1CC[C@H]2[C@@H]3[C@H](O[C@@H]4O[C@H](CO)[C@@H](O)[C@H](O)[C@H]4O)C[C@@H]4C[C@H](O)CC[C@]4(C)[C@H]3C[C@H](O[C@@H]3O[C@H](CO)[C@@H](O)[C@H](O)[C@H]3O)[C@]12C [Entry 10, 3α-hydroxy-cis-5,10-bis-β,β-7,12-glucosyl cholic acid] | – | 0 | – | – | –
COC(=O)CC[C@@H](C)[C@H]1CC[C@H]2[C@@H]3[C@H](O[C@H]4O[C@H](CO)[C@@H](O)[C@H](O)[C@H]4O)C[C@H]4C[C@H](OC(=O)c5ccccc5)CC[C@]4(C)[C@H]3C[C@H](O[C@H]3O[C@H](CO)[C@@H](O)[C@H](O)[C@H]3O)[C@]12C [Entry 11, 3α-O-benzoyl-trans-5,10-bis-α,α-7,12-glucosyl cholic acid methyl ester] | 22.0 | 98 | the most effective glycosylated steroids tested | – | % Decrease in Fluorescence ([2]; 0.00585 mM final concentration): 14.7%; EFFECT (enhancement of erythromycin) ([1]; erythromycin 0.5 mM): +; EFFECT (enhancement of erythromycin) ([1]; erythromycin 1.0 mM): +
C[C@H](CCC(=O)O)[C@H]1CC[C@H]2[C@@H]3[C@H](O[C@@H]4O[C@H](CO)[C@@H](O)[C@H](O)[C@H]4O)C[C@H]4C[C@H](O)CC[C@]4(C)[C@H]3C[C@H](O[C@@H]3O[C@H](CO)[C@@H](O)[C@H](O)[C@H]3O)[C@]12C [Entry 13, 3α-hydroxy-trans-5,10-bis-β,β-7,12-glucosyl cholic acid] | 70.6 | 0 | – | 35.2 | % Decrease in Fluorescence [2, 4]: 2.8%
COC(=O)CC[C@@H](C)[C@H]1CC[C@H]2[C@@H]3[C@H](O)C[C@@H]4C[C@H](O)CC[C@]4(C)[C@H]3C[C@H](O)[C@]12C [Methyl Cholate, reference compound] | 5.4 | 25.4 | – | – | –
Gramicidin [reference compound] | – | – | – | 87.2 | % Decrease in Fluorescence [2, 4]: 81.6%
